The numbers were not newly measured in PubChem BioAssay AID1259410 (Chemical Carcinogenesis Research Information System (CCRIS), 2018), which cites them from elsewhere.

The subject of the data set is rodent tumor promotion studies, tumor incidence. Kind of data set: CCRIS tumor promotion studies.

Structures are written as SMILES. Numbered stars: 1 amine (or outer) side, 2 acyl side, 3 side chain; on linkers, the order of the positions; unused ones are H or OH. Square brackets hold non-standard residues; d marks the D form. Peptide text beside a SMILES is read from it. X1 = O=C(C(N[*:1])c1ccc(OS(=O)(=O)O)cc1)[*:2]

Regarding `C=CCc1ccc(O)c(OC)c1`, the outcome (Carcinogen: 1,2-DIMETHYLHYDRAZINE, 57-14-7 1-METHYL-1-NITROSOUREA, 684-93-5, Carcinogen: 1,2-DIMETHYLHYDRAZINE, 57-14-7 1-METHYL-1-NITROSOUREA, 684-93-5, Doses [Carcinogen]: 40 MG/KG 1,2-DIMETHYLHYDRAZINE IN 0.9% NACL SUBCUTANEOUS 3/WK IN FIRST WK FOLLOWED BY 20 MG 1-METHYL-1-NITROSOUREA/5 ML, Doses [Promoter]: 0, 0.8% IN DIET FOR 48 WK ADMINISTERED 1 WK POST CARCINOGEN DOSE (STUDY DURATION: 52 WK), Route [Carcinogen]: SUBCUTANEOUS, INTRAPERITONEAL, Route [Promoter]: ORAL, Species: RAT, Strain/Sex: F344/MALE) is “forestomach: papilloma”.
With `O=C([O-])/C=C/C(=O)[O-].[Fe+2]`, the outcome (Carcinogen: DIMETHYLHYDRAZINE, 540-73-8, Doses [Carcinogen]: 20 MG/KG 1/WK FOR 10 WK, Doses [Promoter]: 0, 3.5% IN DIET FOR 10 WK BEGINNING POST CARCINOGEN TREATMENT (STUDY DURATION: 20 WK), Route [Carcinogen]: SUBCUTANEOUS, Route [Promoter]: ORAL, Species: MOUSE, Strain/Sex: NMRI/MALE) is “colon/rectum: tumor” and the outcome (Carcinogen: DIMETHYLHYDRAZINE, 540-73-8, Doses [Carcinogen]: 20 MG/KG 1/WK FOR 10 WK, Doses [Promoter]: 0, 3.5% IN DIET FOR 10 WK CONCURRENTLY WITH CARCINOGEN TREATMENT (STUDY DURATION: 20 WK), Route [Carcinogen]: SUBCUTANEOUS, Route [Promoter]: ORAL, Species: MOUSE, Strain/Sex: NMRI/MALE) is listed as “colon/rectum: tumor”.
Take `Clc1ccc(C(c2ccc(Cl)cc2)C(Cl)(Cl)Cl)cc1`: the outcome was “liver” (Carcinogen: 2-(ACETYLAMINO)FLUORINE, Doses [Carcinogen]: DIET, Doses [Promoter]: IN DIET, Route [Carcinogen]: ORAL, Route [Promoter]: ORAL, Species: RAT, Strain/Sex: MALE); “liver: tumor” (Carcinogen: N-METHYL-N'-NITRO-N-NITROSOGUANIDINE, 70-25-7, Doses [Carcinogen]: 50 PPM FOR 60 MIN, Doses [Promoter]: 0, 100 PPM IN DIET BEGINNING 14 WK POST CARCINOGEN DOSE (STUDY DURATION: 12 MO), Route [Carcinogen]: IMMERSION, Route [Promoter]: ORAL, Species: FISH, Strain/Sex: RAINBOW TROUT); “liver: hepatocellular adenoma, hepatocellular carcinoma” (Carcinogen: N-NITROSODIETHYLAMINE, 55-18-5, Doses [Carcinogen]: 90 MG/KG BW ONCE, Doses [Promoter]: 0, 300 PPM IN DIET FOR 53 WK BEGINNING 2 WK POST CARCINOGEN DOSE (STUDY DURATION: 55 WK), Route [Carcinogen]: INTRAPERITONEAL, Route [Promoter]: ORAL, Species: MOUSE, Strain/Sex: D2B6F1/MALE); “liver: tumor” (Doses [Carcinogen]: 0.5 PPM FOR 30 MIN, Doses [Promoter]: 0, 100 PPM IN DIET BEGINNING 14 WK POST CARCINOGEN DOSE (STUDY DURATION: 12 MO), Route [Carcinogen]: IMMERSION, Route [Promoter]: ORAL, Species: FISH, Strain/Sex: RAINBOW TROUT); “liver: carcinoma” (Doses [Carcinogen]: 50 UG 2/WK FOR WK 1-4 OF STUDY THEN 75 UG 2/WK FOR WK 5-8, Doses [Promoter]: 0, 7.5 MG 2/WK FOR 14 WK BEGINNING 1 WK POST CARCINOGEN TREATMENT (STUDY DURATION: 1 YR), Route [Carcinogen]: GAVAGE, Route [Promoter]: GAVAGE, Species: RAT, Strain/Sex: WISTAR/MALE); “liver: carcinoma” (Doses [Carcinogen]: 50 UG 2/WK FOR WK 1-4 OF STUDY THEN 75 UG 2/WK FOR WK 5-8, Doses [Promoter]: 0, 7.5 MG 2/WK FOR 14 WK BEGINNING 3 WK POST CARCINOGEN TREATMENT (STUDY DURATION: 1 YR), Route [Carcinogen]: GAVAGE, Route [Promoter]: GAVAGE, Species: RAT, Strain/Sex: WISTAR/MALE).
For the compound `CC(=O)OO`, the outcome (Carcinogen: 7,12-DIMETHYLBENZ(A)ANTHRACENE, Doses [Carcinogen]: TOP, Route [Carcinogen]: DERMAL, Route [Promoter]: DERMAL, Species: MOUSE, Strain/Sex: FEMALE) is reported as “integumentary system (skin)”.
On to `CCC(C)C(NC(=O)C(CCCNC(=N)N)NC(=O)C(Cc1c[nH]cn1)NC(=O)C(CO)NC(=O)C1CCCN1C(=O)C(CC(=O)O)NC(=O)C(CC(C)C)NC(=O)C(CC(N)=O)NC(=O)C(CCC(N)=O)NC(=O)C(CC(C)C)NC(=O)C(CC(N)=O)NC(=O)C(CCCCN)NC(=O)C(NC(=O)C(NC(=O)C(CO)NC(=O)C(CCSC)NC(=O)C(CCCNC(=N)N)NC(=O)CNC(=O)C(CO)NC(=O)C1CCCN1C(=O)C(C)NC(=O)C(N)CCCCN)C(C)CC)C(C)C)C(=O)NC(CO)C(=O)NC(CC(=O)O)C(=O)NC(CCCNC(=N)N)C(=O)NC(CC(=O)O)C(=O)NC(C(=O)NC(CCSC)C(=O)NCC(=O)NC(Cc1c[nH]c2ccccc12)C(=O)NC(CCSC)C(=O)NC(CC(=O)O)C(=O)NC(Cc1ccccc1)C(N)=O)c1ccc(OS(=O)(=O)O)cc1` (stereo not given) (H-KAPSGRMSIVKNLQNLDPSHRISDRD[X1]MGWMDF-NH2; configuration not given here), for which the outcome is recorded as “pancreas: adenoma” (Carcinogen: AZASERINE, 115-02-6, Doses [Carcinogen]: 30 MG/KG ON DAYS 19, 26, AND 54 OF AGE, Doses [Promoter]: 0, 2.5 UG/KG BW 1/D 3 D/WK FOR 8 MO BEGINNING 4 MO POST FIRST CARCINOGEN DOSE (STUDY DURATION: 8 MO), Route [Carcinogen]: INTRAPERITONEAL, Route [Promoter]: SUBCUTANEOUS, Species: RAT, Strain/Sex: WISTAR/MALE) and “pancreas: adenocarcinoma” (Carcinogen: N-NITROSOBIS(2-OXOPROPYL)AMINE, 60599-38-4, Doses [Carcinogen]: 5 MG/KG 1/WK FOR STUDY DURATION, Doses [Promoter]: 0, 30 IDU/KG 3 D/WK FOR 6 WK (STUDY DURATION: 15 WK), Route [Carcinogen]: SUBCUTANEOUS, Route [Promoter]: SUBCUTANEOUS, Species: HAMSTER, Strain/Sex: SYRIAN/MALE).
`O=C(O)CN(CC(=O)O)CC(=O)O`: the outcome (Carcinogen: N-BIS(2-HYDROXYPROPYL)NITROSAMINE, 53609-64-6, Doses [Carcinogen]: 0.2% IN DRINKING WATER FOR 2 WK, Doses [Promoter]: 0, 1% IN DIET FOR 30 WK BEGINNING POST CARCINOGEN DOSE (STUDY DURATION: 32 WK), Route [Carcinogen]: ORAL, Route [Promoter]: ORAL, Species: RAT, Strain/Sex: WISTAR/MALE) is “bladder: papilloma”; the outcome (Carcinogen: N-BUTYL-N-(4-HYDROXYBUTYL)NITROSAMINE, 3817-11-6, Doses [Carcinogen]: 500 PPM IN DRINKING WATER FOR 4 WK, Doses [Promoter]: 0, 10000 PPM IN DIET BEGINNING POST CARCINOGEN TREATMENT AND CONTINUING FOR 28 WK (STUDY DURATION: 32 WK), Route [Carcinogen]: ORAL, Route [Promoter]: ORAL, Species: RAT, Strain/Sex: WISTAR/MALE) is “urinary bladder: papilloma, transitional cell carcinoma”; the outcome (Carcinogen: N-BUTYL-N-(4-HYDROXYBUTYL)NITROSAMINE, 3817-11-6, Doses [Carcinogen]: 500 PPM IN DRINKING WATER FOR 4 WK, Doses [Promoter]: 0, 10000 PPM IN DIET FOR 28 WK STARTING POST CARCINOGEN (STUDY DURATION: 32 WK), Route [Carcinogen]: ORAL, Route [Promoter]: ORAL, Species: RAT, Strain/Sex: WISTAR/MALE) is “bladder: papilloma, transitional cell carcinoma, squamous cell carcinoma”; the outcome (Carcinogen: N-ETHYL-N-(2-HYDROXYETHYL)NITROSAMINE, Doses [Carcinogen]: 1000 PPM IN DIET FOR 2 WK, Doses [Promoter]: 500, 10000 PPM IN DIET FOR 30 WK, Route [Carcinogen]: ORAL, Route [Promoter]: ORAL, Species: RAT, Strain/Sex: WISTAR/MALE) is “kidney: tubular cell tumor”; the outcome (Carcinogen: N-ETHYL-N-HYDROXYETHYLNITROSAMINE, 13147-25-6, Doses [Carcinogen]: 0.1% IN DIET FOR 2 WK, Doses [Promoter]: 0, 1% IN DIET BEGINNING POST CARCINOGEN TREATMENT AND CONTINUING FOR 30 WK (STUDY DURATION: 32 WK), Route [Carcinogen]: ORAL, Route [Promoter]: ORAL, Species: RAT, Strain/Sex: F344/MALE) is listed as “kidney: adenoma or carcinoma”; the outcome (Carcinogen: N-ETHYL-N-HYDROXYETHYLNITROSAMINE, 13147-25-6, Doses [Carcinogen]: 1000 PPM IN DIET FOR 2 WK, Doses [Promoter]: 0, 500, 10000 PPM IN DIET FOR 30 WK STARTING POST CARCINOGEN (STUDY DURATION: 32 WK), Doses [Promoter]: 0, 500, 10000 PPM IN DIET FOR 30 WK STARTING POST CARCINOGEN (STUDY DURATION: 32 WK), Route [Carcinogen]: ORAL, Route [Promoter]: ORAL, Species: RAT, Strain/Sex: WISTAR/MALE) is “kidney: tubular cell tumor”. Moreover, the outcome (Carcinogen: Potassium bromate (7758-01-2), Doses [Carcinogen]: 60, 125, 250 and 500 ppm in drinking water for 13 wk (study duration 52 wk), Doses [Promoter]: 1% in diet for 37 wks starting 2 wk after end of carcinogen administration (study duration 52 wk), Route [Carcinogen]: Oral, Route [Promoter]: Oral, Species: Rat, Strain/Sex: F344 (15/Group)) was “kidney: significant increase in multiplicity of atypical tubules and of incidenc”.
Regarding `Cc1c(C)c2c(c(C)c1O)CCC(C)(CCCC(C)CCCC(C)CCCC(C)C)O2` (stereo not given), the outcome (Carcinogen: 7,12-DIMETHYLBENZ[A]ANTHRACENE, 57-97-6, Doses [Carcinogen]: 10 NMOL IN 0.2 ML ACETONE ONCE, Doses [Promoter]: 0, 80 UMOL IN 0.2 ML ACETONE 2/WK BEGINNING 1 WK POST CARCINOGEN DOSE AND CONTINUING FOR 19 WK (STUDY DURATION: 20 WK), Route [Carcinogen]: DERMAL, Route [Promoter]: DERMAL, Species: MOUSE, Strain/Sex: SENCAR/FEMALE) is “skin: papilloma”.
